Assay [1] deals with Human BACE-2 (Homo sapiens (Human), UniProt Q9Y5Z0). Nature of the assay: Test 2: Inhibition of Human BACE-2. It counts as biochemical. The following applies: mean IC50, recombinant BACE-2, pH 4.5. From the text: Test 2: Inhibition of Human BACE-2
The target of assay [2] is Human BACE-1 (Homo sapiens (Human), UniProt P56817). The assay is described as follows: Test 1: Inhibition of Human BACE-1. As to conditions: read-out: BACE-1 IC50; mean IC50, recombinant BACE-1, pH 4.5.
Assay [3] can be described thus: Test 4: Inhibition of Cellular Release of Amyloid Peptide 1-40. The following applies: Cricetulus griseus, CHO, 24 h; read-out: Amyloid-β1-40 release IC50. Type of assay: cell-based, Chinese hamster. The protocol: Chinese hamster ovary cells are transfected with the human gene for amyloid precursor protein. The cells are plated at a density of 8000 cells/well into 96-well microtiter plates and cultivated for 24 hours in DMEM cell culture medium containing 10% FCS. The test compound is added to the cells at various concentrations, and the cells are cultivated for 24 hours in the presence of the test compound.

Counter-ions that a name gives are not always drawn.

Human BACE-1, sequence (P56817 46-457): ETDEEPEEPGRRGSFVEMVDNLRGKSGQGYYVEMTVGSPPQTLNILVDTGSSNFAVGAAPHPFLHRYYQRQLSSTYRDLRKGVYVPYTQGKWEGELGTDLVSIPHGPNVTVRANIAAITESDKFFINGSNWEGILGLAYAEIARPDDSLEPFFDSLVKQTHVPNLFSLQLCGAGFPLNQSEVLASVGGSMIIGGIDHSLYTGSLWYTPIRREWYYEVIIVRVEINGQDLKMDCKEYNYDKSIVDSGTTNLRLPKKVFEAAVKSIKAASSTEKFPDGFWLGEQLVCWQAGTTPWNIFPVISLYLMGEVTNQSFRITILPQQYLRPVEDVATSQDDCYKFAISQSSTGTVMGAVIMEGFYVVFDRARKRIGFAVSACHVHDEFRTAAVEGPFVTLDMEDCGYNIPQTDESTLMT
Human BACE-2, sequence (Q9Y5Z0 63-473): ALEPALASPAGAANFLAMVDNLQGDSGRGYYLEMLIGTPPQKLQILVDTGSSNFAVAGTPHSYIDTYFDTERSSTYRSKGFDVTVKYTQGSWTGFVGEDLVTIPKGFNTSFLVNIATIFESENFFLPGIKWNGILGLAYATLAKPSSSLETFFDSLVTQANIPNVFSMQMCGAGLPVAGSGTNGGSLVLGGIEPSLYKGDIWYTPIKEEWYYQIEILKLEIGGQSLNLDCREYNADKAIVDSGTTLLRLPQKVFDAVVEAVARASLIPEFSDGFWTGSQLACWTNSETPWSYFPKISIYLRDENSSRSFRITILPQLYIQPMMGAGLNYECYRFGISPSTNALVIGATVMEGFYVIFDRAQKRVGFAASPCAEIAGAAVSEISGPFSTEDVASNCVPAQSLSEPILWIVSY

Take `Cc1cc(C#N)cnc1C(=O)Nc1cccc(C2(CF)COCC(N)=N2)n1` (stereo not drawn) [Example 5, 5-{6-[(5-Cyano-3-methyl-pyridine-2-carbonyl)-amino]-pyridin-2-yl}-5-fluoromethyl-5,6-dihydro-2H-[1,4]oxazin-3-yl-ammonium trifluoro acetate]: the IC50 – broadly, the concentration that inhibits the measured activity by half – in assay [1] was 1000 nM; in assay [2], 270 nM; in assay [3] it was 40 nM.
As to `COCCn1ccc2nc(C(=O)Nc3ccc(F)c([C@]4(C)CO[C@@](C)(C(F)(F)F)C(N)=N4)n3)c(N)nc21` [Example 43, 3-Amino-5-(2-methoxy-ethyl)-5H-pyrrolo[2,3-b]pyrazine-2-carboxylic acid [6-((3R,6R)-5-amino-3,6-dimethyl-6-trifluoromethyl-3,6-dihydro-2H-[1,4]oxazin-3-yl)-5-fluoro-pyridin-2-yl]amide], the half-maximal inhibitory concentration (IC50) in assay [3] worked out at 370 nM.
The same measure, in the same setting: then `[2H]c1nc(C(=O)Nc2cc(C3(CF)COCC(N)=N3)ccn2)c(C([2H])([2H])[2H])c([2H])c1Cl` (stereo not drawn) [Example 13, 5-{2-[(5-Chloro-4,6-dideutero-3-trideuteromethyl-pyridine-2-carbonyl)-amino]-pyridin-4-yl}-5-fluoromethyl-5,6-dihydro-2H-[1,4]oxazin-3-yl-ammonium acetate], with 550 nM; and `Cc1cnc(C(=O)Nc2ccc(F)c([C@]3(C)CO[C@@](C)(C(F)(F)F)C(N)=N3)n2)c(C)n1` [Example 41, 3,5-Dimethyl-pyrazine-2-carboxylic acid [6-((3R,6R)-5-amino-3,6-dimethyl-6-trifluoromethyl-3,6-dihydro-2H-[1,4]oxazin-3-yl)-5-fluoro-pyridin-2-yl]amide], with 161 nM.
Take `Cc1cnc(C(=O)Nc2ccc(F)c([C@]3(C)CO[C@@](C)(C(F)(F)F)C(N)=N3)n2)cn1` [Example 33, 5-Methyl-pyrazine-2-carboxylic acid [6-((3R,6R)-5-amino-3,6-dimethyl-6-trifluoromethyl-3,6-dihydro-2H-[1,4]oxazin-3-yl)-5-fluoro-pyridin-2-yl]amide]: the IC50 in assay [3] amounted to 130 nM.
With `Cc1cc(C#N)cnc1C(=O)Nc1cc([C@@]2(C)CO[C@@](C)(C(F)(F)F)C(N)=N2)c(F)cn1` [Example 17, 5-Cyano-3-methyl-pyridine-2-carboxylic acid [4-((3S,6R)-5-amino-3,6-dimethyl-6-trifluoromethyl-3,6-dihydro-2H-[1,4]oxazin-3-yl)-5-fluoro-pyridin-2-yl]-amide], in assay [3], the IC50 is 4800 nM.
On the same count and under the same terms, then `C[C@@]1(c2cccc(NC(=O)c3ncc(Br)cc3Cl)n2)CO[C@@](C)(C(F)(F)F)C(N)=N1` [Example 22, 5-Bromo-3-chloro-pyridine-2-carboxylic acid [6-((3R,6R)-5-amino-3,6-dimethyl-6-trifluoromethyl-3,6-dihydro-2H-[1,4]oxazin-3-yl)-pyridin-2-yl]-amide], with 29 nM; and `NC1=NC(CF)(c2cc(NC(=O)c3ccc(Br)cn3)cnc2Cl)COC1` (stereo not drawn) [Example 18, 5-Bromo-pyridine-2-carboxylic acid [5-(5-amino-3-fluoromethyl-3,6-dihydro-2H-[1,4]oxazin-3-yl)-6-chloro-pyridin-3-yl]-amide hydrochloride], with 15 nM; and `Cc1cc(C#N)cnc1C(=O)Nc1ccc(F)c([C@@]2(C(F)F)COCC(N)=N2)n1` [Example 39, 5-Cyano-3-methyl-pyridine-2-carboxylic acid [6-((S)-5-amino-3-difluoromethyl-3,6-dihydro-2H-[1,4]oxazin-3-yl)-5-fluoro-pyridin-2-yl]-amide], with 290 nM.
As to `NC1=NC(CF)(c2cccc(NC(=O)c3ccc(Br)cn3)n2)COC1` (stereo not drawn) [Example 4, 5-Bromo-pyridine-2-carboxylic acid [6-(5-amino-3-fluoromethyl-3,6-dihydro-2H-[1,4]oxazin-3-yl)-pyridin-2-yl]-amide], the IC50 in assay [1] is 1700 nM; in assay [2], 1600 nM; in assay [3], 98 nM.
Take `Cc1cc(C#N)cnc1C(=O)Nc1ccc(F)c([C@]2(C(F)F)COCC(N)=N2)n1` [Example 38, 5-Cyano-3-methyl-pyridine-2-carboxylic acid [6-((R)-5-amino-3-difluoromethyl-3,6-dihydro-2H-[1,4]oxazin-3-yl)-5-fluoro-pyridin-2-yl]-amide]: the concentration for half-maximal inhibition (IC50) in assay [3] is 5 nM.
`C[C@@]1(c2cccc(NC(=O)c3ncc(C#N)cc3N)n2)CO[C@@](C)(C(F)(F)F)C(N)=N1` [Example 19, 3-Amino-5-cyano-pyridine-2-carboxylic acid [6-((3R,6R)-5-amino-3,6-dimethyl-6-trifluoromethyl-3,6-dihydro-2H-[1,4]oxazin-3-yl)-pyridin-2-yl]-amide]: in assay [3], the IC50 is 48 nM.
In the case of `NC1=NC(CF)(c2cccc(NC(=O)c3ccc(Cl)cn3)n2)COC1` (stereo not drawn) [Example 3, 5-{6-[(5-Chloro-pyridine-2-carbonyl)-amino]-pyridin-2-yl}-5-fluoromethyl-5,6-dihydro-2H-[1,4]oxazin-3-yl-ammonium trifluoro acetate], the 50% inhibitory concentration (IC50) came to 2600 nM in assay [2] and 140 nM in assay [3].

The values above are taken from patent US10035794B2, “Heterocyclic derivatives and their use in the treatment of neurological disorders” (NOVARTIS AG, priority 2011, dated 2018).
